Earlier results on two compounds are cited in patent US20110281920A1, “INJECTABLE PARASITICIDAL FORMULATIONS OF LEVAMISOLE AND MACROCYCLIC LACTONES” (priority 2010, published 2011).

The conditions of data set [1]: lactating mammals; ratio of 1 = even distribution between milk and plasma.

In the case of `c1ccc([C@H]2CN3CCSC3=N2)cc1` [Levamisole], the Solubility in water entry is listed as “water soluble”.

Consider eprinomectin, for which the Solubility in water result was “nearly water insoluble”. The “milk to plasma partition ratio” value in data set [1] is listed as ~0.2.
